Experimental findings from US20260356856A1, “KRAS G12S AND G12C INHIBITORS” (MIRATI THERAPEUTICS, INC., priority 2023, published 2026) are described below.

The target in one experiment is T1, KRas G12C (Homo sapiens, UniProt P01116, G12C).
T1 construct: Biotinylated KRas (corresponding to amino acids 1-169, produced at Accelegan Inc.); biotin (biotinylated); purchased Accelegan Inc
Briefly: KRas binding assay, TR-FRET displacement of Cy5 labelled tracer. As to conditions: 60-minute incubation at room temperature, 1% DMSO, pH 7.5. The method in brief: (§1)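 Biotinylated KRas (aa 1-169) incubated with Cy5-labelled tracer, terbium streptavidin and compound (1% DMSO final) in 50 mM HEPES pH 7.5, 5 mM MgCl2, 0.005% Tween-20, 1 mM DTT. Tracer displacement read by TR-FRET after 60 min at room temperature; POC values fitted to 4-parameter IC50 equation.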

For a further experiment, the target named is T2, KRas G12S (Homo sapiens, UniProt P01116, G12S).
T2 construct: Biotinylated KRas (corresponding to amino acids 1-169, produced at Accelegan Inc.); biotin (biotinylated); purchased Accelegan Inc
Described as above. As to conditions: 60-minute incubation at room temperature, 1% DMSO, pH 7.5. The method in brief:
as §1

The next experiment concerns the target T3, KRas WT (Homo sapiens, UniProt P01116).
T3 construct: Biotinylated KRas (corresponding to amino acids 1-169, produced at Accelegan Inc.); biotin (biotinylated); purchased Accelegan Inc
The description is as above. Particulars: 60-minute incubation at room temperature, 1% DMSO, pH 7.5. The gist of the method:
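Assay buffer was HEPES (50 mM, pH 7.5) with MgCl2 (5 mM), DTT (1 mM) and Tween-20 (0.005%). Biotinylated KRas spanning residues 1-169 met tracer, terbium streptavidin and compound (1% DMSO, final) for 60 minutes at ambient temperature before reading. POC values were fitted for IC50.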

In experiment [1] the target is T4, KRas-mediated phosphorylation of ERK in MKN1 cells (Homo sapiens, UniProt P01116).
T4 construct: pERK HTRF read-out
Briefly: Inhibition of KRas-mediated phosphorylation of ERK (HTRF), MKN1 cells. The experiment is classed as cell-based. As to conditions: MKN1 cells (KRas WT); HTRF pERK; 3 h incubation. As for the experimental part:
Inhibition of KRas Phosphorylation of ERK (HTRF) by Exemplary Compounds of Formula (Ia) or (Ib)
Cisbio HTRF Advanced pERK Assay Catalog #64AERPEH • Cells: MKN1, PSN1 • Procedure: • 1. Day 1: Seed 6,000 cells/well −25 μl/well in 384-well white solid bottom plate; RPM1_10% FBS. Incubate overnight at 37 °C/5% CO2. • 2.

Experiment [2] concerns the target T5, KRas-mediated phosphorylation of ERK in A549 cells (Homo sapiens, UniProt P01116, G12S).
T5 construct: pERK HTRF read-out
Briefly: Inhibition of KRas-mediated phosphorylation of ERK (HTRF), A549 cells. The experiment is classed as cell-based. Particulars: HTRF pERK, 3 h incubation. (Time-resolved FRET reads energy transfer from a long-lived donor to a nearby acceptor.)

Experiment [3] deals with T6, KRas-mediated phosphorylation of ERK in H358 cells (Homo sapiens, UniProt P01116, G12C).
T6 construct: pERK HTRF read-out
Briefly: Inhibition of KRas-mediated phosphorylation of ERK (HTRF), H358 cells. The experiment is classed as cell-based. Particulars: HTRF pERK, 3 h incubation.

T3 sequence (P01116 1-169 isoform P01116-2): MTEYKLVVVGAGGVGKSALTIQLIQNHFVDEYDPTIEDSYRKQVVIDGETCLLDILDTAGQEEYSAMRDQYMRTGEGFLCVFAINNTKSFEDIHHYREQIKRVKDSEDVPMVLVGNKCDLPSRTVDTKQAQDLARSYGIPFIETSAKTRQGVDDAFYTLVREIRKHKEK
T5 sequence (P01116 1-188 isoform P01116-2 G12S): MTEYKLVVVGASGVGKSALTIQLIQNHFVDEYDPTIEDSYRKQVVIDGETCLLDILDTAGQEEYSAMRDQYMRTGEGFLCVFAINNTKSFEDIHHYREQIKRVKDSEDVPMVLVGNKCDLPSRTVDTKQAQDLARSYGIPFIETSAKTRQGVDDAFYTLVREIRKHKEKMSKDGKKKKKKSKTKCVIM
T4 sequence (P01116 1-188 isoform P01116-2): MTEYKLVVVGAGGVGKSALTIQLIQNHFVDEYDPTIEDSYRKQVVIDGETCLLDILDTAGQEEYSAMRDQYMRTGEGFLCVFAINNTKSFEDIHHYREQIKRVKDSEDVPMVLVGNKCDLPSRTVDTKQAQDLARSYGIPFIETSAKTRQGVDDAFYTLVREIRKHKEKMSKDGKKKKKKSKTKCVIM
T2 sequence (P01116 1-169 isoform P01116-2 G12S): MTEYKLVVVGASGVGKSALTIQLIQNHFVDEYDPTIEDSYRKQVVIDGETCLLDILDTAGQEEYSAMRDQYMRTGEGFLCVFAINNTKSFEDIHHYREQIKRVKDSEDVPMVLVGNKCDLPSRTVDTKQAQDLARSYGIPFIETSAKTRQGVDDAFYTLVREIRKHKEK
T6 sequence (P01116 1-188 isoform P01116-2 G12C): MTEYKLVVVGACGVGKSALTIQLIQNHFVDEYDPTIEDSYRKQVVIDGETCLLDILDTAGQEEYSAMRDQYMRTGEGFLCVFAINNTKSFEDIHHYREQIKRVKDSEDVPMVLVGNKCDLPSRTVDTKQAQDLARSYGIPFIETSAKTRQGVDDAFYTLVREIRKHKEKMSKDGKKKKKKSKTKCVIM
T1 sequence (P01116 1-169 isoform P01116-2 G12C): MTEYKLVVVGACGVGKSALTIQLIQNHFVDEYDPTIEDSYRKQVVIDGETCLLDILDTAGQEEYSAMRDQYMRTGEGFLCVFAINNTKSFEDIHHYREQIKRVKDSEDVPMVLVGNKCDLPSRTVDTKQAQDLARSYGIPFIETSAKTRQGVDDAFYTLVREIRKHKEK

By IC50 is commonly meant the concentration at which inhibition is half-maximal. A low value points to inhibition by little substance. Regarding `CCc1c(F)ccc2cc(O)cc(-c3ncc4c(N(C)CCNC(=O)n5ccnn5)nc(OC[C@@]56CCCN5C[C@H](F)C6)nc4c3F)c12` [Example 250, N-(2-((7-(8-ethyl-7-fluoro-3-hydroxynaphthalen-1-yl)-8-fluoro-2-(((2R,7aS)-2-fluorotetrahydro-1H-pyrrolizin-7a(5H)-yl)methoxy)pyrido[4,3-d]pyrimidin-4-yl)(methyl)amino)ethyl)-1H-1,2,3-triazole-1-carboxamide], the IC50 on KRas G12C is less than 2 nM; on KRas G12S, 34 nM; at KRas WT, 37 nM; in experiment [1], 357 nM; in experiment [2], 1680 nM; in experiment [3] it was 8 nM.

With `CCc1c(F)ccc2cc(O)cc(-c3ncc4c(N(C)CCNC(=O)n5nccn5)nc(OC[C@@]56CCCN5C[C@H](F)C6)nc4c3F)c12` [Example 251, N-(2-((7-(8-ethyl-7-fluoro-3-hydroxynaphthalen-1-yl)-8-fluoro-2-(((2R,7aS)-2-fluorotetrahydro-1H-pyrrolizin-7a(5H)-yl)methoxy)pyrido[4,3-d]pyrimidin-4-yl)(methyl)amino)ethyl)-2H-1,2,3-triazole-2-carboxamide], the IC50 on KRas G12C came to 21 nM; at KRas G12S, 65 nM; on KRas WT, 70 nM; in experiment [1], 1280 nM; in experiment [2] it was 5440 nM; in experiment [3], 66 nM.

With `N#Cc1c(N)sc2c(F)ccc(-c3c(Cl)cc4c(N5CCN(S(=O)(=O)n6ccnn6)CC5)nc(OC[C@@]56CCCN5C[C@H](F)C6)nc4c3F)c12` [Example 252, 4-(4-(4-((1H-1,2,3-triazol-1-yl)sulfonyl)piperazin-1-yl)-6-chloro-8-fluoro-2-(((2R,7aS)-2-fluorotetrahydro-1H-pyrrolizin-7a(5H)-yl)methoxy)quinazolin-7-yl)-2-amino-7-fluorobenzo[b]thiophene-3-carbonitrile], the 50% inhibitory concentration (IC50) at KRas G12C came out at 48 nM; at KRas G12S it was 77 nM; at KRas WT it was 39 nM; in experiment [1] it was 156 nM; in experiment [2], 806 nM; in experiment [3], 391 nM.

In the case of `CC(=O)N(C)C(=O)C1CCN(c2nc(OC[C@@]34CCCN3C[C@H](F)C4)nc3c(F)c(-c4ccc(F)c5sc(N)c(C#N)c45)c(Cl)cc23)CC1` [Example 253, N-acetyl-1-(7-(2-amino-3-cyano-7-fluorobenzo[b]thiophen-4-yl)-6-chloro-8-fluoro-2-(((2R,7aS)-2-fluorotetrahydro-1H-pyrrolizin-7a(5H)-yl)methoxy)quinazolin-4-yl)-N-methylpiperidine-4-carboxamide], the IC50 at KRas G12C stood at 8 nM; at KRas G12S, 8 nM; at KRas WT it was 10 nM; in experiment [1] it was 37 nM; in experiment [2] it was 14 nM; in experiment [3] it was 61 nM.

For the molecule `CC(=O)N(C)C(=O)C1CCN(c2nc(OC[C@@]34CCCN3C[C@H](F)C4)nc3c(F)c(-c4ccc(F)c5sc(N)c(C#N)c45)c(Cl)cc23)CC1` [Example 254, N-acetyl-1-((S)-7-(2-amino-3-cyano-7-fluorobenzo[b]thiophen-4-yl)-6-chloro-8-fluoro-2-(((2R,7aS)-2-fluorotetrahydro-1H-pyrrolizin-7a(5H)-yl)methoxy)quinazolin-4-yl)-N-methylpiperidine-4-carboxamide], the IC50 at KRas G12C came out at 3 nM; on KRas G12S, 3 nM; on KRas WT, 4 nM; in experiment [1], 18 nM; in experiment [2], 5 nM; in experiment [3], 29 nM.

As for `CC(=O)N(C)C(=O)C1CCCN(c2nc(OC[C@@]34CCCN3C[C@H](F)C4)nc3c(F)c(-c4ccc(F)c5sc(N)c(C#N)c45)c(Cl)cc23)CC1` (stereo partly drawn) [Example 255, N-acetyl-1-(7-(2-amino-3-cyano-7-fluorobenzo[b]thiophen-4-yl)-6-chloro-8-fluoro-2-(((2R,7aS)-2-fluorotetrahydro-1H-pyrrolizin-7a(5H)-yl)methoxy)quinazolin-4-yl)-N-methylazepane-4-carboxamide], the IC50 turned out to be 14 nM at KRas G12C; 11 nM at KRas G12S; 14 nM on KRas WT; 41 nM in experiment [1]; 28 nM in experiment [2]; 29 nM in experiment [3].

Turning to `CCc1c(F)ccc2cc(O)cc(-c3ncc4c(N5CCC(C(=O)N(C)S(C)(=O)=O)CC5)nc(OC[C@@]56CCCN5C[C@H](F)C6)nc4c3F)c12` [Example 257, 1-(7-(8-ethyl-7-fluoro-3-hydroxynaphthalen-1-yl)-8-fluoro-2-(((2R,7aS)-2-fluorotetrahydro-1H-pyrrolizin-7a(5H)-yl)methoxy)pyrido[4,3-d]pyrimidin-4-yl)-N-methyl-N-(methylsulfonyl)piperidine-4-carboxamide], the IC50 was determined as 5 nM on KRas G12C; 499 nM on KRas G12S; 214 nM at KRas WT; 726 nM in experiment [1]; 677 nM in experiment [2]; 21 nM in experiment [3].

For `CC(=O)N(C)C(=O)CCCNc1nc(OC[C@@]23CCCN2C[C@H](F)C3)nc2c(F)c(-c3ccc(F)c4sc(N)c(C#N)c34)c(Cl)cc12` [Example 258, N-acetyl-4-((7-(2-amino-3-cyano-7-fluorobenzo[b]thiophen-4-yl)-6-chloro-8-fluoro-2-(((2R,7aS)-2-fluorotetrahydro-1H-pyrrolizin-7a(5H)-yl)methoxy)quinazolin-4-yl)amino)-N-methylbutanamide], the IC50 at KRas G12C came out at 3 nM; on KRas G12S it was 4 nM; on KRas WT, 9 nM; in experiment [1] it was 84 nM; in experiment [2] it was 29 nM; in experiment [3] it was 38 nM.

As for `CC(=O)N(C)C(=O)CCCN(C)c1nc(OC[C@@]23CCCN2C[C@H](F)C3)nc2c(F)c(-c3ccc(F)c4sc(N)c(C#N)c34)c(Cl)cc12` [Example 259, N-acetyl-4-((7-(2-amino-3-cyano-7-fluorobenzo[b]thiophen-4-yl)-6-chloro-8-fluoro-2-(((2R,7aS)-2-fluorotetrahydro-1H-pyrrolizin-7a(5H)-yl)methoxy)quinazolin-4-yl)(methyl)amino)-N-methylbutanamide], the IC50 at KRas G12C was 3 nM; at KRas G12S, 3 nM; at KRas WT, 8 nM; in experiment [1] it was 125 nM; in experiment [2], 19 nM; in experiment [3] it was 80 nM.

Take `CCc1c(F)ccc2cc(O)cc(-c3ncc4c(NCCCC(=O)N(C)C(C)=O)nc(OC[C@@]56CCCN5C[C@H](F)C6)nc4c3F)c12` [Example 261, N-acetyl-4-((7-(8-ethyl-7-fluoro-3-hydroxynaphthalen-1-yl)-8-fluoro-2-(((2R,7aS)-2-fluorotetrahydro-1H-pyrrolizin-7a(5H)-yl)methoxy)pyrido[4,3-d]pyrimidin-4-yl)amino)-N-methylbutanamide]: the IC50 on KRas G12C stood at 14 nM; on KRas G12S, 15 nM; at KRas WT, 23 nM; in experiment [1], 159 nM; in experiment [2], 67 nM; in experiment [3], 159 nM.
